One test deals with FADD−/− Jurkat cells. As to the kind of experiment: Necroptosis inhibition assay, TNF-α-induced necroptosis (CellTiter-Glo 2.0). Type of test: cell-based, human. Particulars: TNF-α 15 ng/mL; for Necroptosis inhibition assay (Rescue %) 1 μM: compound 1 μM; for Necroptosis inhibition assay (Rescue %) 10 μM: compound 10 μM. On the procedure: Necroptosis Inhibition Assay
Necroptosis inhibition was evaluated by the following method.
80 μL of FADD gene-defective human T lymphocyte cells (FADD−/− Jurkat cells) were equally distributed into each well at 5.0×10^5 cells/mL in a white 96-well plate with a transparent bottom. 20 μL of the medium containing test compound was treated in each well so that the final concentration of the compound was 0.1, 1, and 10 μM, and reacted at room temperature for 30 minutes. After the 30-minute reaction was over, TNF (tumor necrosis factor)-α was treated in the corresponding well so that the final concentration of TNF-α was 15 ng/mL in order to induce necroptosis. It was cultured in a 5% CO2, 37° C. incubator for 20 to 24 hours.
After incubation, the 96-well plate was left at room temperature for 30 minutes. After 30 minutes, Promega's CellTiter-Glo 2.0 reagent was diluted 1:3 with PBS and 100 μL of the diluted solution was added to each well to confirm cell viability by measuring the amount of ATP. After the treatment, the plate was shielded from light and incubated at room temperature for 2 minutes with orbital shaking, and then left at room temperature for 10 minutes without shaking. After measuring the luminescence at 0.5 seconds per well using a plate scanner, the cytotoxicity and necroptosis inhibition rate for the compound were calculated using the measured values.

Another test has as its target T1, MLKL (Homo sapiens, UniProt Q8NB16).
T1 sequence (Q8NB16 1-471): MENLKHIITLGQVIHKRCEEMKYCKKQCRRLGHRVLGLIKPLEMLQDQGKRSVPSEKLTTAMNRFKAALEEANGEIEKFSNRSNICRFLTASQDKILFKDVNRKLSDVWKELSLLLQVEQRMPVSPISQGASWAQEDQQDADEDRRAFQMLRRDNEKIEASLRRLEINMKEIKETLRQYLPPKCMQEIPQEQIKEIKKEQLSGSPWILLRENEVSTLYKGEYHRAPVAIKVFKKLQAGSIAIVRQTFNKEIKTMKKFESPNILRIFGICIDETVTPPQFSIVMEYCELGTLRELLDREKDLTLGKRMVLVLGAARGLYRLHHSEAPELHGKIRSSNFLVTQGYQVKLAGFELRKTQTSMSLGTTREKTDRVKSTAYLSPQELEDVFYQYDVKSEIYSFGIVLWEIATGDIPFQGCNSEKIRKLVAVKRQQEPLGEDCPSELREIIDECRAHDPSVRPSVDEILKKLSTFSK
In words: Measurement of binding affinity with MLKL receptor (competitive binding assay, Kd). Also noted: made in house; host or cells: HEK 293 cell line (T7 phage in E. coli BL21-derived host is also described). On the procedure: Measurement of Binding Affinity with MLKL Receptor (Competitive Binding Assay)
The binding affinity was evaluated by measuring the Kd value in the following method.
To prepare kinase-tagged T7 phage strains in an E. coli host derived from the BL21 strain, E. coli were grown to log-phase and infected with T7 phage and incubated with shaking at 32° C. until lysis. The lysates were centrifuged and filtered to remove cell debris. For kinase production, it was expressed in human embryonic kidney cell line (HEK 293 cell line), and subsequently tagged with DNA for qPCR detection.
The liganded beads were blocked with excess biotin and washed with blocking buffer (SeaBlock (Pierce), 1% BSA, 0.05% Tween 20, 1 mM DTT) to remove unbound ligand and to reduce non-specific binding. […] Test compounds were prepared as 111× stocks in 100% DMSO.
The compounds were then diluted directly into the assays such that the final concentration of DMSO was 0.9%. All reactions performed in polypropylene 384-well plate. Each was a final volume of 0.02 ml. […] The kinase concentration in the eluates was measured by qPCR.

Where a name gives a salt, the structure may show the parent alone.

With `Nc1ncc(-c2cnn(C3CCN(CCCCCCCCCCNC(=O)CNc4ccc5c(c4)C(=O)N(C4CCC(=O)NC4=O)C5=O)CC3)c2)nc1C(=O)O[C@@H](C(=O)Nc1ccc(F)cc1)c1ccccc1` (stereo partly drawn) [TDH-162, (R)-2-((4-fluorophenyl)amino)-2-oxo-1-phenylethyl 3-amino-6-(1-(1-(10-(2-((2-(2,6-dioxopiperidin-3-yl)-1,3-dioxoisoindolin-5-yl)amino)acetamido)decyl)piperidin-4-yl)-1H-pyrazol-4-yl)pyrazine-2-carboxylate], in the test with FADD−/− Jurkat cells, the “Necroptosis inhibition assay (Rescue %) 1 μM” value is recorded as 36.55% and the “Necroptosis inhibition assay (Rescue %) 10 μM” value amounted to 26.25%. This compound also came in with a Kd at MLKL of 11 nM.

In the case of `Nc1ncc(C2=CCN(CCOCCOCCNC(=O)CNc3ccc4c(c3)C(=O)N(C3CCC(=O)NC3=O)C4=O)CC2)nc1C(=O)O[C@@H](C(=O)Nc1ccc(F)cc1)c1ccccc1` (stereo partly drawn) [TDH-107, (R)-2-((4-fluorophenyl)amino)-2-oxo-1-phenylethyl 3-amino-6-(1-(2-(2-(2-(2-((2-(2,6-dioxopiperidin-3-yl)-1,3-dioxoisoindolin-5-yl)amino)acetamido)ethoxy)ethoxy)ethyl)-1,2,3,6-tetrahydropyridin-4-yl)pyrazine-2-carboxylate], in the test on FADD−/− Jurkat cells, the “Necroptosis inhibition assay (Rescue %) 1 μM” value is recorded as 24.34% and the “Necroptosis inhibition assay (Rescue %) 10 μM” value was found to be 50.16%. Further, the Kd at MLKL is 560 nM.

On to `Nc1nccnc1C(=O)O[C@H](C(=O)Nc1ccc(F)cc1)c1ccccc1` [TDH-002, (S)-2-((4-fluorophenyl)amino)-2-oxo-1-phenylethyl 3-aminopyrazine-2-carboxylate], for which the “Necroptosis inhibition assay (Rescue %) 1 μM” value in the test on FADD−/− Jurkat cells amounted to 6.35%. The compound also yielded a Kd on MLKL greater than 10000 nM.

Consider `Nc1ncc(-c2cnn(C3CCN(C(=O)CCCCCNC(=O)CNc4ccc5c(c4)C(=O)N(C4CCC(=O)NC4=O)C5=O)CC3)c2)nc1C(=O)O[C@@H](C(=O)Nc1ccc(F)cc1)c1ccccc1` (stereo partly drawn) [TDH-123, (R)-2-((4-fluorophenyl)amino)-2-oxo-1-phenylethyl 3-amino-6-(1-(1-(6-(2-((2-(2,6-dioxopiperidin-3-yl)-1,3-dioxoisoindolin-5-yl)amino)acetamido)hexanoyl)piperidin-4-yl)-1H-pyrazol-4-yl)pyrazine-2-carboxylate], for which, in the test with FADD−/− Jurkat cells, the “Necroptosis inhibition assay (Rescue %) 1 μM” value is 8.69% and the “Necroptosis inhibition assay (Rescue %) 10 μM” value came to 8.92%. Also, at MLKL, binding was put at a Kd of 0.89 nM.

Consider `CC1CCC(NC(=O)[C@H](OC(=O)c2nc(-c3cnn(C4CCNCC4)c3)cnc2N)c2ccccc2)CC1` (stereo partly drawn) [TDH-424, (R)-2-((4-methylcyclohexyl)amino)-2-oxo-1-phenylethyl 3-amino-6-(1-(piperidin-4-yl)-1H-pyrazol-4-yl)pyrazine-2-carboxylate hydrochloride], for which, at MLKL, the affinity, expressed as Kd, was 5.1 nM.

For the compound `Nc1ncc(-c2cnn(C3CCNCC3)c2)nc1C(=O)O[C@@H](C(=O)Nc1cccnc1)c1ccccc1` [TDH-468, (R)-2-oxo-1-phenyl-2-(pyridin-3-ylamino)ethyl 3-amino-6-(1-(piperidin-4-yl)-1H-pyrazol-4-yl)pyrazine-2-carboxylate hydrochloride], the Kd at MLKL is 1.7 nM.

In the case of `Nc1ncc(-c2cnn(C3CCNCC3)c2)nc1C(=O)OC(C(=O)Nc1ccc(F)cc1)c1ccc(F)cc1` (stereo not shown) [TDH-489, 1-(4-fluorophenyl)-2-((4-fluorophenyl)amino)-2-oxoethyl 3-amino-6-(1-(piperidin-4-yl)-1H-pyrazol-4-yl)pyrazine-2-carboxylate hydrochloride], the Kd on MLKL is 1.2 nM.

For the compound `Nc1ncc(-c2cnn(C3CCNCC3)c2)nc1C(=O)O[C@@H](C(=O)Nc1ccccc1)c1ccccc1` [TDH-463, (R)-2-oxo-1-phenyl-2-(phenylamino)ethyl 3-amino-6-(1-(piperidin-4-yl)-1H-pyrazol-4-yl)pyrazine-2-carboxylate hydrochloride], the affinity on MLKL, expressed as Kd, was 0.35 nM.

`Cc1cc(Nc2ncc(Cl)c(Nc3ccccc3S(=O)(=O)C(C)C)n2)c(OC(C)C)cc1C1CCNCC1` [Ceritinib (C2)]: the equilibrium dissociation constant (Kd) at MLKL is greater than 10000 nM.

`Nc1ncc(C2=CCNCC2)nc1C(=O)O[C@@H](C(=O)Nc1ccc(F)cc1)c1ccccc1` [TDH-068, (R)-2-((4-fluorophenyl)amino)-2-oxo-1-phenylethyl 3-amino-6-(1,2,3,6-tetrahydropyridin-4-yl)pyrazine-2-carboxylate hydrochloride] returned a Kd on MLKL of 380 nM.

`Cc1ccc(NC(=O)[C@H](OC(=O)c2nc(-c3cnn(C4CCNCC4)c3)cnc2N)c2ccccc2)cc1` [TDH-319, (R)-2-oxo-1-phenyl-2-(p-tolylamino)ethyl 3-amino-6-(1-(piperidin-4-yl)-1H-pyrazol-4-yl)pyrazine-2-carboxylate hydrochloride] came in with an equilibrium dissociation constant (Kd) at MLKL of 0.82 nM.

Compound `Nc1ncc(C2=CCN(C(=O)COCCOCCNc3cccc4c3C(=O)N(C3CCC(=O)NC3=O)C4=O)CC2)cc1C(=O)O[C@@H](C(=O)Nc1ccc(F)cc1)c1ccccc1` (stereo partly drawn) [TDH-082, (R)-2-((4-fluorophenyl)amino)-2-oxo-1-phenylethyl 6-amino-1′-(2-(2-(2-((2-(2,6-dioxopiperidin-3-yl)-1,3-dioxoisoindolin-4-yl)amino)ethoxy)ethoxy)acetyl)-1′,2′,3′,6′-tetrahydro-[3,4′-bipyridine]-5-carboxylate] displayed a Kd on MLKL of 70 nM.

Regarding `Cc1ccc([C@@H](OC(=O)c2nc(-c3cnn(C4CCNCC4)c3)cnc2N)C(=O)Nc2ccc(F)cc2)cc1` [TDH-320, (R)-2-((4-fluorophenyl)amino)-2-oxo-1-(p-tolyl)ethyl 3-amino-6-(1-(piperidin-4-yl)-1H-pyrazol-4-yl)pyrazine-2-carboxylate hydrochloride], the dissociation constant (Kd) at MLKL was found to be 1.7 nM.

Consider `CC(=O)N1CCC(n2cc(-c3cnc(N)c(C(=O)O[C@@H](C(=O)Nc4ccc(F)cc4)c4ccc(Cl)cc4)n3)cn2)CC1` [TDH-325, (R)-1-(4-chlorophenyl)-2-((4-fluorophenyl)amino)-2-oxoethyl 6-(1-(1-acetylpiperidin-4-yl)-1H-pyrazol-4-yl)-3-aminopyrazine-2-carboxylate], for which binding on MLKL was characterised by a dissociation constant (Kd) of 1.1 nM.

In the case of `CC(C)(C)OC(=O)N1CC=C(c2cnc(N)c(C(=O)O[C@@H](C(=O)Nc3ccc(F)cc3)c3ccccc3)c2)CC1` [TDH-066, (R)-1′-(tert-butyl) 5-(2-((4-fluorophenyl)amino)-2-oxo-1-phenylethyl) 6-amino-3′,6′-dihydro-[3,4′-bipyridine]-1′,5(2′H)-dicarboxylate], on MLKL, the dissociation constant (Kd) worked out at 650 nM.

On MLKL, `CC(=O)N1CC[C@H](n2cc(-c3cnc(N)c(C(=O)OC(C(=O)Nc4ccc(F)cc4)c4ccccc4)n3)cn2)C1` (stereo partly drawn) [TDH-228, 2-((4-fluorophenyl)amino)-2-oxo-1-phenylethyl 6-(1-((S)-1-acetylpyrrolidin-3-yl)-1H-pyrazol-4-yl)-3-aminopyrazine-2-carboxylate] yielded a Kd of 1.2 nM.

Consider `Nc1ncc(C2=CCNCC2)cc1C(=O)O[C@@H](C(=O)Nc1ccc(F)cc1)c1ccccc1` [TDH-070, (R)-2-((4-fluorophenyl)amino)-2-oxo-1-phenylethyl 6-amino-1′,2′,3′,6′-tetrahydro-[3,4′-bipyridine]-5-carboxylate hydrochloride], for which binding on MLKL was characterised by a dissociation constant (Kd) of 110 nM.

`CCN1CCN(c2ccc(-c3cnc(N)c(C(=O)O[C@@H](C(=O)Nc4ccc(F)cc4)c4ccccc4)n3)cn2)CC1` [TDH-183, (R)-2-((4-fluorophenyl)amino)-2-oxo-1-phenylethyl 3-amino-6-(6-(4-ethylpiperazin-1-yl)pyridin-3-yl)pyrazine-2-carboxylate] came in with an equilibrium dissociation constant (Kd) at MLKL of 2 nM.
